Biological target: T1, Thermolysin (Bacillus thermoproteolyticus, UniProt P00800)
T1 construct: gene npr
Assay: TIMES (label-free, immobilization-free microfluidic electronic detection), […] Tris-HCl buffer pH […]
Format: binding
Conditions: read-out: Measured KD from TIMES

T1 sequence (P00800 233-548): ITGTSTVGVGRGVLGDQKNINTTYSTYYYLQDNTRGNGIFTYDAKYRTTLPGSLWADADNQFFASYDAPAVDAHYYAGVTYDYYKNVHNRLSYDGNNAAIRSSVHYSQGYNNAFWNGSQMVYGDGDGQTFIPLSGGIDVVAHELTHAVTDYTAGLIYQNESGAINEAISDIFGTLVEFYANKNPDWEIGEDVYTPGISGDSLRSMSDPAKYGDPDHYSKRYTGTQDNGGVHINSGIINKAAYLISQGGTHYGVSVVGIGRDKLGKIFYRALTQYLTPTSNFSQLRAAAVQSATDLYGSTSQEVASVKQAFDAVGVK

CC(C)C[C@H](NP(=O)(O)O[C@@H]1O[C@@H](C)[C@H](O)[C@@H](O)[C@H]1O)C(=O)N[C@@H](Cc1c[nH]c2ccccc12)C(=O)O [phosphoramidon]
Kd: 32.1 ± 1.9 nM
